Measurements taken from patent publication US20240150368A1, “ULK INHIBITORS AND METHODS OF USE THEREOF” (Deciphera Pharmaceuticals, LLC, priority 2022, published 2024).
pIC50: −log10 of the molar value.

What was measured:
[1] = test system: ULK kinase substrate ATG13 (pS318-ATG13) in A549 (KRAS mutant) cells; test: pATG13 levels of mutant KRas A549 cells after treatment with ULK inhibitors in combination with trametinib (ELISA); type: cell-based, human
How it was run: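 A549 cells grown overnight were treated with a test-compound dose response plus trametinib at 250 nM final (or DMSO) overnight at 37° C. Lysates were assayed by total-ATG13 capture and biotinylated pS318-ATG13 detection ELISA (450 nm minus 540 nm background); % phosphorylation versus controls gave IC50 values.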

[2] = test system: ULK kinase substrate ATG13 (pS318-ATG13) in MiaPaCa-2 cells; test: pATG13 levels of mutant KRas MiaPaCa-2 cells after treatment with ULK inhibitors in combination with trametinib (ELISA); type: cell-based, human
How it was run: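 MiaPaCa-2 cells grown overnight, then dosed with test compound titration plus trametinib (final 250 nM) or DMSO, overnight at 37° C. Lysate pS318-ATG13 measured by sandwich ELISA (total ATG13 capture, biotinylated pS318 detection, HRP/TMB, A450 minus A540); % phosphorylation vs control wells fitted to IC50.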

Row | pIC50 [1] | pIC50 [2] | SMILES
1 | 6.22 to 6.52 | ≥ 7.00 | CC/C(Nc1cnn(CCN(C)C)c1)=C1/C(=O)Nc2ccc(C(=O)NCC(F)(F)F)cc21 [Example 103]
2 | ≥ 7.00 | ≥ 7.00 | CC/C(Nc1cnn([C@H]2CCOC2)c1)=C1/C(=O)Nc2ccc(C(=O)NCC(F)(F)F)cc21 [Example 104]
3 | ≥ 7.00 | ≥ 7.00 | CC/C(Nc1cnn([C@@H]2CCOC2)c1)=C1/C(=O)Nc2ccc(C(=O)NCC(F)(F)F)cc21 [Example 105]
4 | 6.52 to 7.00 | ≥ 7.00 | CC/C(Nc1cnn(C2CCOCC2)c1)=C1/C(=O)Nc2ccc(C(=O)NCC(F)(F)F)cc21 [Example 106]
5 | ≥ 7.00 | ≥ 7.00 | CC/C(Nc1cnn(CC)c1)=C1/C(=O)Nc2ccc(C(=O)NCC(F)(F)F)cc21 [Example 107]
6 | < 6.22 | 6.52 to 7.00 | CC/C(Nc1cn[nH]c1)=C1/C(=O)Nc2ccc(C(=O)NCC(F)(F)F)cc21 [Example 108]
7 | ≥ 7.00 | ≥ 7.00 | CC/C(Nc1cnn(C(C)C)c1)=C1/C(=O)Nc2ccc(C(=O)NCC(F)F)cc21 [Example 112]
8 | 6.52 to 7.00 | ≥ 7.00 | CC/C(Nc1cnn(C(F)(F)F)c1)=C1/C(=O)Nc2ccc(C(=O)NCC(F)(F)F)cc21 [Example 113]
9 | 6.52 to 7.00 | ≥ 7.00 | CC/C(Nc1cnn(C(F)F)c1)=C1/C(=O)Nc2ccc(C(=O)NCC(F)(F)F)cc21 [Example 114]
10 | ≥ 7.00 | ≥ 7.00 | CC/C(Nc1cnn(C2CC2)c1)=C1/C(=O)Nc2ccc(C(=O)NCC(F)(F)F)cc21 [Example 116]
11 | ≥ 7.00 | ≥ 7.00 | CC/C(Nc1cnn(C2CCC2)c1)=C1/C(=O)Nc2ccc(C(=O)NCC(F)(F)F)cc21 [Example 117]
12 | 6.22 to 6.52 | ≥ 7.00 | CC/C(Nc1cnn(C2COC2)c1)=C1/C(=O)Nc2ccc(C(=O)NCC(F)(F)F)cc21 [Example 118]
13 | ≥ 7.00 | ≥ 7.00 | CC/C(Nc1cnn(C(C)C)c1)=C1/C(=O)Nc2ccc(C(=O)N[C@H](C)C(F)(F)F)cc21 [Example 119]
14 | < 6.22 | 6.52 to 7.00 | CC/C(Nc1cn(C(C)C)nn1)=C1/C(=O)Nc2ccc(C(=O)NCC(F)(F)F)cc21 [Example 122]
15 | 6.52 to 7.00 | ≥ 7.00 | CC/C(Nc1cnn(C2CCN(C(C)C)CC2)c1)=C1/C(=O)Nc2ccc(C(C)=O)cc21 [Example 123]
16 | < 6.22 | 6.22 to 6.52 | CC/C(Nc1cccnc1)=C1/C(=O)Nc2ccc(C(=O)NCC(F)(F)F)cc21 [Example 124]
17 | 6.22 to 6.52 | 6.52 to 7.00 | CC/C(Nc1cnn(C(C)C)c1)=C1/C(=O)Nc2ccc(C(=O)N(C)CC(F)(F)F)cc21 [Example 125]
18 | 6.22 to 6.52 | 6.52 to 7.00 | CC/C(Nc1cnn(C(C)C)c1)=C1/C(=O)Nc2ccc(C(=O)NCCOC)cc21 [Example 126]
19 | < 6.22 | 6.52 to 7.00 | CC/C(Nc1cnn(C(C)C)c1)=C1/C(=O)Nc2ccc(C(=O)NCCC#N)cc21 [Example 127]
20 | 6.22 to 6.52 | 6.22 to 6.52 | CC/C(Nc1cnn(C(C)C)c1)=C1/C(=O)Nc2ccc(C(=O)NC[C@@H](C)OC)cc21 [Example 128]
21 | ≥ 7.00 | ≥ 7.00 | CC/C(Nc1cnn(C(C)C)c1)=C1/C(=O)Nc2ccc(C(=O)NCC(C)C)cc21 [Example 130]
22 | ≥ 7.00 | ≥ 7.00 | CC/C(Nc1cnn(C(C)C)c1)=C1/C(=O)Nc2ccc(C(=O)NCC3CC(F)(F)C3)cc21 [Example 134]
23 | ≥ 7.00 | ≥ 7.00 | CC/C(Nc1cnn(C(C)C)c1)=C1/C(=O)Nc2ccc(C(=O)NCC(C)(C)F)cc21 [Example 135]

Row | pIC50 [1] | pIC50 [2] | SMILES
24 | 6.52 to 7.00 | ≥ 7.00 | CC/C(Nc1cnn(C(C)C)c1)=C1/C(=O)Nc2ccc(C(=O)NCCOC(F)(F)F)cc21 [Example 136]
25 | 6.22 to 6.52 | 6.52 to 7.00 | CC/C(Nc1cnn(C(C)C)c1)=C1/C(=O)Nc2ccc(C(=O)NCC3CCC(C)(C)O3)cc21 (centres unmarked) [Example 137]
26 | < 6.22 | 6.22 to 6.52 | CC/C(Nc1cnn(C(C)C)c1)=C1/C(=O)Nc2ccc(C(=O)NCC3CCC4(CCC4)O3)cc21 (centres unmarked) [Example 138]
27 | ≥ 7.00 | ≥ 7.00 | CC/C(Nc1cnn(C(C)C)c1)=C1/C(=O)Nc2ccc(C(=O)NCC3(C(F)(F)F)CC3)cc21 [Example 140]
28 | 6.22 to 6.52 | 6.52 to 7.00 | CC/C(Nc1ccc2nn(C(C)C)cc2c1)=C1/C(=O)Nc2ccc(C(=O)NCC(F)(F)F)cc21 [Example 142]
29 | ≥ 7.00 | ≥ 7.00 | CC/C(Nc1cnn(C2CC(F)(F)C2)c1)=C1/C(=O)Nc2ccc(C(=O)NCC(F)(F)F)cc21 [Example 144]
30 | 6.52 to 7.00 | 6.52 to 7.00 | CC/C(Nc1ccccn1)=C1/C(=O)Nc2ccc(C(=O)NCC(F)(F)F)cc21 [Example 145]
31 | 6.52 to 7.00 | ≥ 7.00 | CC/C(Nc1cnn(C(F)F)c1)=C1/C(=O)Nc2ccc(C(=O)NCC(C)C)cc21 [Example 147]
32 | 6.52 to 7.00 | 6.52 to 7.00 | CC/C(Nc1cnn(C(C)C)c1)=C1/C(=O)Nc2ccc(C(=O)NCC(C)(C)OC)cc21 [Example 148]
33 | 6.52 to 7.00 | 6.52 to 7.00 | CC/C(Nc1cc(C(F)(F)F)ccn1)=C1/C(=O)Nc2ccc(C(=O)NCC(F)(F)F)cc21 [Example 149]
34 | ≥ 7.00 | ≥ 7.00 | CC/C(Nc1cnn(C(C)C)c1)=C1/C(=O)Nc2ccc(C(=O)NCC3(F)CC3)cc21 [Example 152]
35 | ≥ 7.00 | ≥ 7.00 | CC/C(Nc1cnn(CC)c1)=C1/C(=O)Nc2ccc(C(=O)NCC3(F)CC3)cc21 [Example 153]
36 | ≥ 7.00 | ≥ 7.00 | CC/C(Nc1cnn(C)c1)=C1/C(=O)Nc2ccc(C(=O)NCC3(F)CC3)cc21 [Example 154]
37 | ≥ 7.00 | ≥ 7.00 | CC/C(Nc1cnn(C(C)C)c1)=C1/C(=O)Nc2ccc(C(=O)NCC3(C#N)CC3)cc21 [Example 156]
38 | 6.52 to 7.00 | ≥ 7.00 | CC/C(Nc1cnn(CC(C)OC)c1)=C1/C(=O)Nc2ccc(C(=O)NCC(F)(F)F)cc21 (centres unmarked) [Example 157]
39 | 6.52 to 7.00 | 6.52 to 7.00 | CC/C(Nc1cnn(CC(C)OC)c1)=C1/C(=O)Nc2ccc(C(=O)NCC(F)(F)F)cc21 (centres unmarked) [Example 158]
40 | 6.52 to 7.00 | ≥ 7.00 | CC/C(Nc1cnn(C(C)CC)c1)=C1/C(=O)Nc2ccc(C(=O)NCC(F)(F)F)cc21 (centres unmarked) [Example 159]
41 | 6.52 to 7.00 | ≥ 7.00 | CC/C(Nc1cnn(CC(F)(F)F)c1)=C1/C(=O)Nc2ccc(C(=O)NCC(C)(C)F)cc21 [Example 160]
42 | ≥ 7.00 | ≥ 7.00 | CC/C(Nc1cnn(CC(F)F)c1)=C1/C(=O)Nc2ccc(C(=O)NCC(C)(C)F)cc21 [Example 161]
43 | ≥ 7.00 | ≥ 7.00 | CC/C(Nc1cnn(C(C)C)c1)=C1/C(=O)Nc2ccc(C(=O)NCCC(F)(F)F)cc21 [Example 166]
44 | 6.22 to 6.52 | 6.52 to 7.00 | CC/C(Nc1cnn(C(C)C)c1)=C1/C(=O)Nc2ccc(C(=O)NCC3(C)CCOC3)cc21 (centres unmarked) [Example 168]
45 | 6.52 to 7.00 | 6.52 to 7.00 | CC/C(Nc1cnn(C(F)(F)F)c1)=C1/C(=O)Nc2ccc(C(=O)NCC(C)C)cc21 [Example 169]
46 | ≥ 7.00 | ≥ 7.00 | CC/C(Nc1cnn(C2CCOCC2)c1)=C1/C(=O)Nc2ccc(C(=O)NCC(C)(C)F)cc21 [Example 173]
